The results in this text go back to ChEMBL document CHEMBL3758147, “1,9-seco-Bicyclic Polyprenylated Acylphloroglucinols from Hypericum uralum” (J Nat Prod, 2015).

As a reminder, the IC50 is the point on the concentration scale where inhibition reaches its midpoint.

Structures are written as SMILES.

Sequence of Acetylcholinesterase (P22303 whole entry): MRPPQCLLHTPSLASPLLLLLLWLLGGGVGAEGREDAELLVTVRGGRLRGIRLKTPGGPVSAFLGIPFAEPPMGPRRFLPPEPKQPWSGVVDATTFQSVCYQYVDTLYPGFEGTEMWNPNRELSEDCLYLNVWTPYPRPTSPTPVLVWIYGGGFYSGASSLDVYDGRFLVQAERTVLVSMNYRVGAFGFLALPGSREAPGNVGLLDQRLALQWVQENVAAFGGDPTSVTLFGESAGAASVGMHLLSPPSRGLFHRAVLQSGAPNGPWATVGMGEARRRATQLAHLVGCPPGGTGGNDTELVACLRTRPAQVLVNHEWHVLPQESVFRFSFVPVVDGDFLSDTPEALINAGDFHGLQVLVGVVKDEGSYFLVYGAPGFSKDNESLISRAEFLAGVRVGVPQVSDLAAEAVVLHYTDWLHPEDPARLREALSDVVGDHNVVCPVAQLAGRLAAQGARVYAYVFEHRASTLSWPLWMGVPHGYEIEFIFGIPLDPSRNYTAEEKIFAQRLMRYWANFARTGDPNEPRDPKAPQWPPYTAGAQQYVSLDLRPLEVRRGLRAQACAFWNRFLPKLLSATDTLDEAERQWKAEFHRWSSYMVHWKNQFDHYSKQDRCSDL

One test concerns the target Acetylcholinesterase (Homo sapiens, UniProt P22303). Briefly: Inhibition of human erythrocyte AChE using acetylthiocholine as substrate assessed as substrate hydrolysis preincubated for 20 mins followed by substrate addition measured after 30 mins by Ellman's assay.
Conditions: not given; call rule not given here
Consider `CC(C)=CCC[C@]1(C)[C@@H](CC=C(C)C)C[C@@]2(CC=C(C)C)C(=O)O[C@@](CC=C(C)C)(C(=O)[C@H]1C(=O)C(C)C)C2=O`, for which the half-maximal inhibitory concentration (IC50) result was “Not Active”.
Same read-out and setting: for `CC(C)=CC[C@H]1C[C@@]2(CC=C(C)C)C(=O)O[C@](CC=C(C)C)(C2=O)C(=O)[C@]23C(=O)c4ccccc4C(C)(C)[C@H]2CC[C@]13C` the value was “Not Active”.
The same measure, in the same setting: for `CC(C)=CCC[C@]1(C)[C@@H](CC=C(C)C)C[C@H](CC=C(C)C)C(=O)[C@](O)(CC=C(C)C)C(=O)[C@H]1C(=O)C(C)C` the value was “Not Active”; for `CCC(C)C(=O)[C@@H]1C(=O)[C@]2(CC=C(C)C)OC(=O)[C@](CC=C(C)C)(C[C@H](CC=C(C)C)[C@@]1(C)C/C=C/C(C)(C)OO)C2=O` (some centres not stated), “Not Active”.
Still for that read-out and setting: for `CC(C)=CCC1=C2OC(C)(C)[C@H](O)[C@H]3/C=C(/C)[C@@H](CC=C(C)C)C[C@](CC=C(C)C)(C1=O)C(=O)[C@]23C(=O)c1ccccc1` the value was “Not Active”.
Regarding `CC(C)=CC[C@H]1C[C@@]2(CC=C(C)C)C(=O)C3(CC=C(C)C)CC14C[C@@H](C=C(C)C)C(C(=O)c1ccccc1)(C3=O)C42O`, the IC50 entry is on record as “Not Active”.
As for `CC(C)=CC[C@H]1C[C@@]2(CC=C(C)C)C(=O)O[C@@](CC=C(C)C)(C(=O)[C@@H](C(=O)C(C)C)[C@]1(C)C/C=C/C(C)(C)OO)C2=O`, the IC50 entry is reported as “Not Active”.
For `CC(C)=CCC/C(C)=C/C[C@]12C[C@@H](CC=C(C)C)C(C)(C)[C@H](C(=O)C(C)C)C(=O)[C@](CC=C(C)C)(OC1=O)C2=O`, the IC50 entry is recorded as “Not Active”.
Turning to `CCC(C)C(=O)[C@@H]1C(=O)[C@]2(CC=C(C)C)OC(=O)[C@](C/C=C(\C)CCC=C(C)C)(C[C@@H](CC=C(C)C)C1(C)C)C2=O` (some centres not stated), the IC50 entry was “Not Active”.
Same read-out and setting: under `CC(C)=CC[C@H]1C[C@@]23C[C@H]4C(C)(C)c5ccccc5C(=O)[C@]45C(=O)C(CC=C(C)C)(C[C@@]1(C/C=C/C(C)(C)O)C25O)C3=O` stands “Not Active”.

The test is the same for the next values; noted with them: read-out: IC50.
`CCC(C)C(=O)[C@@H]1C(=O)[C@]2(CC=C(C)C)OC(=O)[C@](CC=C(C)C)(C[C@H](CC=C(C)C)[C@@]1(C)C/C=C/C(C)(C)O)C2=O` (some centres not stated): the IC50 is 7.1 µM.
`CC(C)=CC[C@H]1C[C@@]2(CC=C(C)C)C(=O)O[C@@](CC=C(C)C)(C(=O)[C@@H](C(=O)C(C)C)[C@]1(C)C/C=C/C(C)(C)O)C2=O`: the IC50 came to 9.6 µM.
